# Assay results taken from ChEMBL document CHEMBL4190241, “Isolation of Premyrsinane, Myrsinane, and Tigliane Diterpenoids from Euphorbia pithyusa Using a Chikungunya Virus Cell-Based Assay and Analogue Annotation by Molecular Networking” (J Nat Prod, 2017).
# Tests used:
# [1] = Cytotoxicity against African green monkey Vero A cells assessed as reduction in cell viability after 6 to 7 days by MTS assay; type: cell-based; conditions: chlorocebus sabaeus
# Chikungunya virus = experiment: Antiviral activity against Chikungunya virus Indian ocean strain 899 infected in African green monkey Vero A cells assessed as reduction in viral-induced cytopathic effect after 6 to 7 days by MTS/PMS assay; type: functional, organism-based; conditions: Indian ocean 899, Vero
# [2] = Selectivity index, ratio of CC50 for African green monkey Vero A cells to EC50 for Chikungunya virus Indian ocean strain 899 infected in African green monkey Vero A cells; type: toxicity; conditions: read-out: Ratio CC50/EC50
SMILES,CC50 [1] [µM],EC50 (Chikungunya virus) [µM],selectivity ratio [2]
CCC(=O)O[C@@H]1[C@@H]2[C@@H](OC(=O)c3ccccc3)[C@]3(COC(C)=O)[C@H](O)C[C@H]4[C@@H]([C@H]3[C@](C)(O)C(=O)[C@@]2(OC(C)=O)C[C@@H]1C)C4(C)C,63.5,11,5.8
CC(=O)OCC1=C[C@H]2[C@@H]3C(C)(C)[C@]3(OC(=O)C(C)C(C)C)C[C@@H](C)[C@]2(O)[C@@H]2C=C(C)C(=O)[C@H]2C1 (stereo partly specified),42.7,4,10.6
CC(=O)OC[C@]12[C@H](OC(=O)c3ccccc3)[C@H]3[C@@H](OC(C)=O)[C@@H](C)C[C@]3(O)C(=O)[C@@](C)(OC(C)=O)[C@@H]1[C@@H]1[C@H](C[C@H]2OC(C)=O)C1(C)C,171,78,2.2
CCC(C)C(=O)O[C@@H]1[C@H]2[C@@H](OC(C)=O)[C@@H](C)C[C@]2(O)C(=O)[C@@](C)(OC(C)=O)[C@@H]2[C@@H]3[C@H](C[C@@H](OC(C)=O)[C@@]12COC(C)=O)C3(C)C (stereo partly specified),> 157,> 50,< 5
C=C(C)C1C=C[C@@H](OC(C)=O)[C@@]23CO[C@@](C)([C@H](OC(=O)c4ccccc4)[C@@]4(O)C[C@H](C)[C@H](OC(=O)CC)[C@@H]4[C@H]2OC(C)=O)[C@H]13 (stereo partly specified),158,84,1.9
CCC(=O)O[C@@H]1[C@@H]2[C@@H](OC(=O)c3ccccc3)[C@@]3(COC(C)=O)[C@@H]([C@@H]4[C@H](C[C@H]3OC(C)=O)C4(C)C)[C@](C)(CC(C)=O)C(=O)[C@@]2(O)C[C@@H]1C,,> 144,
CCC(=O)O[C@@H]1[C@@H]2[C@@H](OC(=O)C(C)CC)[C@@]3(COC(C)=O)[C@@H]([C@@H]4[C@H](C[C@H]3OC(C)=O)C4(C)C)[C@](C)(OC(C)=O)C(=O)[C@@]2(O)C[C@@H]1C (stereo partly specified),153,107,2.2
CCC(=O)O[C@@H]1[C@@H]2[C@@H](OC(=O)c3ccccc3)[C@@]3(COC(C)=O)[C@@H]([C@@H]4[C@H](C[C@H]3OC(C)=O)C4(C)C)[C@](C)(OC(=O)c3cccnc3)C(=O)[C@@]2(O)C[C@@H]1C,> 159,> 107,< 2.4
CC(=O)OC[C@]12[C@H](OC(=O)c3ccccc3)[C@H]3[C@@H](OC(C)=O)[C@@H](C)C[C@]3(OC(C)=O)C(=O)[C@@](C)(O)[C@@H]1[C@@H]1[C@H](C[C@H]2OC(C)=O)C1(C)C,,> 152,
CC(=O)OCC1=C[C@H]2[C@@H]3C(C)(C)[C@]3(OC(=O)C(C)C(C)C)C[C@@H](C)[C@]2(O)[C@@H]2C=C(C)C(=O)[C@@H]2C1 (stereo partly specified),,> 11,
CCN(CC)CCCC(C)Nc1ccnc2cc(Cl)ccc12 (stereo unspecified) [CHLOROQUINE],89,11,
